“And” between values parts separate entries of the source, which are not always exact repeats. Equal values may be shown once. Read-outs that look alike come from different tables or passages of the source.
Columns and labels:
[1] = cited from earlier work; for Log Pow: previously determined
[2] = test system: human ovarian carcinoma cisplatin-sensitive A2780; design: method as in PMID 31441186; conditions: previously determined on the same cell line; cited from earlier work
[3] = test system: human ovarian carcinoma cisplatin-resistant A2780cisR; test: Cytotoxicity, WST-1 cell viability assay, A2780cisR; assay type: cell-based; conditions: 72 h exposure
Procedure: (§1) In vitro cytotoxicity investigations were carried out by using human ovarian carcinoma cisplatin-sensitive A2780 (ECACC93112519), human ovarian carcinoma cisplatin-resistant A2780cisR (ECACC 93112517) and mouse embryo fibroblasts Balb/3T3 clone A31 (ATCC CCL-163) cell lines. A2780 and A2780cisR were purchased from the European Collection of Authenticated Cell Cultures (ECACC), and Balb/3T3 clone A31 cell line from the American Type Culture Collection (ATCC).
(§2) A2780 and A2780cisR cells were routinely cultured in RPMI 1640 (Merck) containing 2 mM of L-glutamine (Merck), 1% of penicillin/streptomycin solution (Merck—10 000 U mL^−1: 10 mg mL^−1), 10% of fetal bovine serum (Merck—FBS) and antimycotic (InvivoGen, USA), and Balb/3T3 clone A31 in Dulbecco’s modified Eagle medium (Merck—DMEM) supplemented with 4 mM of L-glutamine, 1% of penicillin/streptomycin solution, 10% of calf serum (Merck) and antimycotic. […] The cultures were maintained at 37 °C and in a 5% CO2-enriched atmosphere.
(§3) A2780, A2780cisR and Balb/3T3 clone A31 cells were seeded in 96-well tissue culture polystyrene plates at a concentration of 3 × 10^3, 6 × 10^3 and 1 × 10^3 cells per well, respectively. After overnight incubation, the cells were treated with different concentrations (0–100 µM) of the selected compounds for 72 h at 37 °C in a 5% atmosphere of CO2. Stock solutions of compounds were prepared in DMSO and sequentially diluted in medium (final DMSO concentration of 0.5%). […] At the end of the incubation time, cell viability was assessed by means of WST-1 tetrazolium salt reagent (Roche). Briefly, cells were incubated for 4 h with the tetrazolium salt reagent diluted 1:10, at 37 °C and 5% CO2. Measurements of formazan dye absorbance, which directly correlates with the number of viable cells, were carried out with a micro-plate reader (Biorad) at 450 nm, using 655 nm as reference wavelength. The 50% inhibitory concentration (IC50) refers to compound concentration at which 50% of cell death is observed with respect to the control. For each tested compound, assay was performed on triplicate. The concentration effect curves were generated by nonlinear regression curves (GraphPad Prism Software, 2021) and the data reported as mean ± standard deviation.

[4] = test system: mouse embryo fibroblasts Balb/3T3 clone A31; test: Cytotoxicity, WST-1 cell viability assay, Balb/3T3 clone A31; assay type: cell-based; conditions: 72 h exposure
Procedure: as §1, §2, §3

[5] = test system: human ovarian carcinoma cisplatin-sensitive A2780; test: Cytotoxicity, WST-1 cell viability assay, A2780; assay type: cell-based; conditions: for IC50: 72 h exposure; for Selectivity index (S.I.): ratio between IC50 for Balb/3T3 and IC50 for A2780
Procedure: as §1, §2, §3

[6] = Octanol–water partition coefficient (shake-flask, UV–Vis); assay type: physicochemical; conditions: 21 °C
Procedure: • (c) Octanol–water partition coefficients (Log Pow). Partition coefficients (Pow; IUPAC: KD partition constant), defined as Pow = corg/caq, where corg and caq are molar concentrations of the selected compound in the organic and aqueous phase, respectively, were determined by the shake-flask method and UV–Vis measurements. Deionized water and 1-octanol were vigorously stirred for 24 h to enable saturation of both phases, then separated by centrifugation. A stock solution of the selected diiron compound (ca. 2 mg; 2a–c, 3b, 4a–c, 5a, 5c, 6b,c, 7) was prepared by first adding acetone (50 μL, to help solubilization), followed by water-saturated octanol (2.5 mL). The solution was diluted with water-saturated octanol (ca. 1:3 v/v ratio, cFe2 ≈ 10^−4 M, so that 1.5 ≤ A ≤ 2.0 at λmax) and the UV–Vis spectrum was recorded (A^0org). An aliquot of the solution (Vorg = 1.2 mL) was transferred into a test tube and octanol-saturated water (Vorg = Vaq = 1.2 mL) was added. The mixture was vigorously stirred for 15 min at 21 °C and then centrifuged (5000 rpm, 10 min). The UV–Vis spectrum of the organic phase was recorded (A^forg) and the partition coefficient was calculated as Pow = A^forg/(A^0org − A^forg), where A^0org and A^forg are the absorbance in the organic phase before and after partition with the aqueous phase, respectively. An inverse procedure was followed for 3a, 3c, 5b and 6a, starting from a solution of the compound in octanol-saturated water. The partition coefficient was calculated as Pow = (A^0aq − A^faq)/A^faq where A^0aq and A^faq are the absorbance in the aqueous phase before and after partition with the organic phase, respectively. The wavelength of the maximum absorption of each compound (ca. 300 nm) was used for UV–Vis quantitation. The procedure was repeated three times for each sample (from the same stock solution); results are given as mean ± standard deviation.

[7] = Stability in DMSO-d6/D2O or D2O solution at 37 °C for 72 h (1H NMR); assay type: physicochemical; conditions: 72 h at 37 °C
Procedure: (§4) • (a) Solubility in D2O. A suspension of the selected diiron compound (3–5 mg) in a D2O solution (ca. 1 mL) containing Me2SO2 (3.36 × 10^−3 M) as internal standard was vigorously stirred at 21 °C for 1.5 h. The resulting saturated solution was filtered over celite, transferred into an NMR tube and then analyzed by ^1H NMR spectroscopy (delay time = 3 s; number of scans = 20). The concentration (solubility) was calculated by the relative integral (related to Cp and/or NMe signals) with respect to Me2SO2 (δ = 3.14 ppm). • (b) Stability in DMSO-d6/D2O solution. The selected diiron compound (ca. 4 mg) was added of 1 mL of D2O (3a,c) or DMSO-d6/D2O (2:1 v/v) mixture (2a,c, 3b, 4a–c, 5a–c, 6a–c, 7), containing Me2SO2 (3.36 × 10^−3 M). The resulting mixture was stirred for 30 min and then filtered over celite; the filtrated solution was transferred into an NMR tube. The sample was analyzed by ^1H NMR (time = 0) and then heated at 37 °C for 72 h. After cooling to room temperature, the solution was separated from a small amount of solid by filtration over celite, and the new ^1H NMR spectrum was recorded (delay time = 3 s; number of scans = 20). In every case, no newly formed organometallic species was detected. The amount of starting material in solution (% with respect to the initial spectrum) was calculated by the relative integral (vs. Cp and/or NMe signals) with respect to Me2SO2 as internal standard.

[8] = Solubility in D2O by 1H NMR (Me2SO2 internal standard); assay type: physicochemical; conditions: for Solubility: 21 °C
Procedure: as §4

| Molecule | Log Pow [6] | Stability % (residual % of starting material) ([7]; DMSO-d6/D2O (2:1 v/v)) [%] | Solubility [8] | IC50 [4] [µM] | IC50 [5] | Selectivity index (S.I.) [5] | other results |
| --- | --- | --- | --- | --- | --- | --- | --- |
| O=C1C=CC(=O)c2ccccc21 [Naphthoquinone] |  |  |  |  |  |  | Log P ([1]; literature value): 1.71 |
| CC1=[C](C)[Fe+]2(=[C]=O)[C](=O)[Fe+]2[C]1=[N+](C)c1c(C)cccc1C.O=S(=O)([O-])C(F)(F)F.c1cc[cH-]c1.c1cc[cH-]c1 (stereo not shown) [[Fe2Cp2(CO)(μ-CO){μ-η^1:η^3-C^3(Me)C^2(Me)C^1NMe(Xyl)}]CF3SO3] |  |  |  |  |  |  | Log Pow [1]: 0.0; IC50 [2]: 0.5 ± 0.06 µM |
| Cc1cccc(C)c1[N+](C)=[C]1C=[C](c2ccccc2)[Fe+]2(=[C]=O)[C](=O)[Fe+]12.O=S(=O)([O-])C(F)(F)F.c1cc[cH-]c1.c1cc[cH-]c1 (stereo not shown) [[Fe2Cp2(CO)(μ-CO){μ-η^1:η^3-C^3(Ph)C^2HC^1NMe(Xyl)}]CF3SO3] |  |  |  |  |  |  | Log Pow [1]: 0.4; IC50 [2]: 0.9 ± 0.06 µM |
| N.N.[Cl][Pt][Cl] [cisplatin, reference compound] |  |  |  | 0.8 ± 0.2 | 0.4 ± 0.07 µM |  | IC50 [3]: 26 ± 3 µM |
| [Fe2Cp2(CO)(μ-CO){μ-η^1:η^3-C^3(Me)C^2(Me)C^1NMe(CH2CH = CH2)}]CF3SO3 [Compound 3c] | −0.77 ± 0.01 |  | 6.89 × 10^−3 mol·L^−1 and 4.02 g·L^−1 | > 100 | ~17 µM and 17 µM | >5.9 | Stability % (residual % of starting material) ([7]; neat D2O): 85 ^a % |
| [Fe2Cp2(CO)(μ-CO){μ-η^1:η^3-C^3(Me)C^2HC^1N(CH2Ph)2}]CF3SO3 [Compound 2a] | 0.45 ± 0.04 | 81 |  | 14 ± 4 | 2 ± 0.7 µM | 7 |  |
| [Fe2Cp2(CO)(μ-CO){μ-η^1:η^3-C^3(Me)C^2HC^1NMe2}]CF3SO3 |  |  |  |  |  |  | Log Pow [1]: −0.3; IC50 [2]: 35 ± 3 µM |
| [Fe2Cp2(CO)(μ-CO){μ-η^1:η^3-C^3(Me)C^2HC^1NMe(CH2CH = CH2)}]CF3SO3 [Compound 3a] | −0.75 ± 0.01 |  | 6.43 × 10^−3 mol·L^−1 and 3.66 g·L^−1 | > 100 | 17.7 ± 0.8 µM | >5.6 | Stability % (residual % of starting material) ([7]; neat D2O): 93 ^a % |
| [Fe2Cp2(CO)(μ-CO){μ-η^1:η^3-C^3(Ph)C^2HC^1N(CH2Ph)2}]CF3SO3 [Compound 2b] | 1.4 and 1.4 ± 0.2 |  |  |  |  |  | Solubility in D2O (in words) [8]: almost insoluble in D2O |

Further lines, with some results ahead:

| Log Pow [6] | Stability % (residual % of starting material) ([7]; DMSO-d6/D2O (2:1 v/v)) [%] | Solubility [8] | Molecule | IC50 [4] [µM] | IC50 [5] | Selectivity index (S.I.) [5] | other results |
| --- | --- | --- | --- | --- | --- | --- | --- |
| 0.13 ± 0.01 | 84 | 1.10 × 10^−3 mol·L^−1 and 0.73 g·L^−1 | [Fe2Cp2(CO)(μ-CO){μ-η^1:η^3-C^3(Et)C^2(Et)C^1NMe(CH2Ph)}]CF3SO3 [Compound 5c] | 90 ± 8 | 3.75 ± 0.14 µM | 24 |  |
| −0.46 ± 0.01 | 94 | 2.22 × 10^−3 mol·L^−1 and 1.41 g·L^−1 | [Fe2Cp2(CO)(μ-CO){μ-η^1:η^3-C^3(Me)C^2HC^1NMe(4-C6H4OMe)}]CF3SO3 [Compound 6a] | 94 ± 4 | 3.5 ± 0.5 µM | 27 |  |
| −0.26 ± 0.01 | 85 |  | [Fe2Cp2(CO)(μ-CO){μ-η^1:η^3-C^3(Me)C^2HC^1NMe(CH2Ph)}]CF3SO3 [Compound 5a] | > 100 | 7.1 ± 0.4 µM | >14 |  |
| 0.41 ± 0.02 | 65 | 1.52 × 10^−3 mol·L^−1 and 1.02 g·L^−1 | [Fe2Cp2(CO)(μ-CO){μ-η^1:η^3-C^3(Ph)C^2HC^1NMe(Cy)}]CF3SO3 [Compound 4b] | 35 ± 3 | 2.6 ± 0.3 µM | 13 |  |

— article PMC8398472, “Anticancer Diiron Vinyliminium Complexes: A Structure–Activity Relationship Study” (Pharmaceutics, 2021)
